Where a SMILES comes first, the peptide text is derived from it. Bridges are numbered along the chain shown (N, C = ends).
Assays:
hNaV1.5 = hNaV1.5 (Homo sapiens, UniProt Q14524); test: Two-electrode voltage-clamp on Xenopus laevis oocytes expressing NaV1.5; conditions: for inhibition at 100 µM: read-out: Maximum % inhibition NaV1.5
rNaV1.4 = rNaV1.4 (Rattus norvegicus, UniProt P15390); test: Two-electrode voltage-clamp on Xenopus laevis oocytes expressing NaV1.4; conditions: for inhibition at 100 µM: read-out: Maximum % inhibition NaV1.4, peptide at 100 μM; for Maximum % inhibition NaV1.4: peptide at 100 μM, 100 µM
rNaV1.2 = rNaV1.2 (Rattus norvegicus, UniProt P04775); test: Two-electrode voltage-clamp on Xenopus laevis oocytes expressing NaV1.2; conditions: for inhibition at 100 µM: read-out: Maximum % inhibition NaV1.2, peptide at 100 μM
mNaV1.6 = mNaV1.6 (Mus musculus, UniProt Q9WTU3); test: Two-electrode voltage-clamp on Xenopus laevis oocytes expressing NaV1.6; conditions: for inhibition at 100 µM: read-out: Maximum % inhibition NaV1.6, peptide at 100 μM
Chain of mNaV1.6 (Q9WTU3 whole entry): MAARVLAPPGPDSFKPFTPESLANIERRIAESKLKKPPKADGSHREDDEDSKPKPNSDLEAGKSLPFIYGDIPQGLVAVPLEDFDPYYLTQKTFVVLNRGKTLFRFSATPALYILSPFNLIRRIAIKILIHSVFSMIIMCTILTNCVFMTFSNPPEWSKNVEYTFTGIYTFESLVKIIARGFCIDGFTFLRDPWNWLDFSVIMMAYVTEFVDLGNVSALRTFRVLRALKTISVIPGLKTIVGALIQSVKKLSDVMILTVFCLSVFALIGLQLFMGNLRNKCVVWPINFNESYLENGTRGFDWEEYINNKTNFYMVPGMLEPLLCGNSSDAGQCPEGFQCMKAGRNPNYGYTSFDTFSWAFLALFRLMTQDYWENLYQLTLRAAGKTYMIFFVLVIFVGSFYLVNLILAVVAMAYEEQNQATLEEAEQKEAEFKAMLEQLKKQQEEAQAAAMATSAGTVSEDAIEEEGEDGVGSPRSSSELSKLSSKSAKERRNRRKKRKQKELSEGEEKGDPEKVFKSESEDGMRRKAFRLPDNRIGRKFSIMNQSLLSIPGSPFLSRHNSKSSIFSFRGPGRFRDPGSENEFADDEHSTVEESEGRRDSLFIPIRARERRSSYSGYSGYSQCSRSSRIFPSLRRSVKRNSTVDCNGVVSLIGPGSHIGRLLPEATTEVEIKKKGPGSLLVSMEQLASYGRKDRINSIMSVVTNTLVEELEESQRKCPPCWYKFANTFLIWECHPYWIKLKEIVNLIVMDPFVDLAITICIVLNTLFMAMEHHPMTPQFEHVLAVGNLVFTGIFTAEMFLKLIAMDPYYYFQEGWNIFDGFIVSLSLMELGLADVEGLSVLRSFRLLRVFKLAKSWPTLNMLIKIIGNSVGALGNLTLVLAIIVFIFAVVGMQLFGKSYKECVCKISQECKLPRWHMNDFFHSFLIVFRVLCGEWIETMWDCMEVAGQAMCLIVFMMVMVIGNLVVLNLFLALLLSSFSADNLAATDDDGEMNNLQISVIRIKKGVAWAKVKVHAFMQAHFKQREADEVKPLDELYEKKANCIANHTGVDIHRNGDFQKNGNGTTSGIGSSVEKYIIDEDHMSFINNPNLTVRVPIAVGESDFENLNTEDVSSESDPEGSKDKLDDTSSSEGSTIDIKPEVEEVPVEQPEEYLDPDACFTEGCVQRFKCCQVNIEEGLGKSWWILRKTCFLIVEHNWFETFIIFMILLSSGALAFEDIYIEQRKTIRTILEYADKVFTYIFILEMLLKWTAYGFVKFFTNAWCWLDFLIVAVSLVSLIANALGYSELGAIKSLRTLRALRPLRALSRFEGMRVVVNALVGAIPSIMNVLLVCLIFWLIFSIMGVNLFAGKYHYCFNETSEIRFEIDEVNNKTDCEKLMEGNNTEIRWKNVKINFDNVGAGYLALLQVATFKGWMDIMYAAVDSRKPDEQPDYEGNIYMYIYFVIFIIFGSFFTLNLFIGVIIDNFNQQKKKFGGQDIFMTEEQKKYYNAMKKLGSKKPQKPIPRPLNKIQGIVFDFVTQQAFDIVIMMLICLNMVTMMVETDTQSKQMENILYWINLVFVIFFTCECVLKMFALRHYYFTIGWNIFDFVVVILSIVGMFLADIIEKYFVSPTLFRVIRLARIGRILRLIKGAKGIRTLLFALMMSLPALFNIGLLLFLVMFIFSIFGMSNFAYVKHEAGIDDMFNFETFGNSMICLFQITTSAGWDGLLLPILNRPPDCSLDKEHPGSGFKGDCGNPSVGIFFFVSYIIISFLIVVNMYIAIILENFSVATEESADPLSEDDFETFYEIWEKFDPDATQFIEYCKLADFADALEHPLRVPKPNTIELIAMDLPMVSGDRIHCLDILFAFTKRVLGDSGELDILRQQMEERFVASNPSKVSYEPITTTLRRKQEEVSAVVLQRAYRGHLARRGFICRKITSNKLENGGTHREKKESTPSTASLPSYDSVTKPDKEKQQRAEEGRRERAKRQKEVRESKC

rNaV1.8 = rNaV1.8 (Rattus norvegicus, UniProt Q62968); test: Two-electrode voltage-clamp on Xenopus laevis oocytes expressing NaV1.8; conditions: for inhibition at 100 µM: read-out: Maximum % inhibition NaV1.8
Chain of rNaV1.8 (Q62968 whole entry): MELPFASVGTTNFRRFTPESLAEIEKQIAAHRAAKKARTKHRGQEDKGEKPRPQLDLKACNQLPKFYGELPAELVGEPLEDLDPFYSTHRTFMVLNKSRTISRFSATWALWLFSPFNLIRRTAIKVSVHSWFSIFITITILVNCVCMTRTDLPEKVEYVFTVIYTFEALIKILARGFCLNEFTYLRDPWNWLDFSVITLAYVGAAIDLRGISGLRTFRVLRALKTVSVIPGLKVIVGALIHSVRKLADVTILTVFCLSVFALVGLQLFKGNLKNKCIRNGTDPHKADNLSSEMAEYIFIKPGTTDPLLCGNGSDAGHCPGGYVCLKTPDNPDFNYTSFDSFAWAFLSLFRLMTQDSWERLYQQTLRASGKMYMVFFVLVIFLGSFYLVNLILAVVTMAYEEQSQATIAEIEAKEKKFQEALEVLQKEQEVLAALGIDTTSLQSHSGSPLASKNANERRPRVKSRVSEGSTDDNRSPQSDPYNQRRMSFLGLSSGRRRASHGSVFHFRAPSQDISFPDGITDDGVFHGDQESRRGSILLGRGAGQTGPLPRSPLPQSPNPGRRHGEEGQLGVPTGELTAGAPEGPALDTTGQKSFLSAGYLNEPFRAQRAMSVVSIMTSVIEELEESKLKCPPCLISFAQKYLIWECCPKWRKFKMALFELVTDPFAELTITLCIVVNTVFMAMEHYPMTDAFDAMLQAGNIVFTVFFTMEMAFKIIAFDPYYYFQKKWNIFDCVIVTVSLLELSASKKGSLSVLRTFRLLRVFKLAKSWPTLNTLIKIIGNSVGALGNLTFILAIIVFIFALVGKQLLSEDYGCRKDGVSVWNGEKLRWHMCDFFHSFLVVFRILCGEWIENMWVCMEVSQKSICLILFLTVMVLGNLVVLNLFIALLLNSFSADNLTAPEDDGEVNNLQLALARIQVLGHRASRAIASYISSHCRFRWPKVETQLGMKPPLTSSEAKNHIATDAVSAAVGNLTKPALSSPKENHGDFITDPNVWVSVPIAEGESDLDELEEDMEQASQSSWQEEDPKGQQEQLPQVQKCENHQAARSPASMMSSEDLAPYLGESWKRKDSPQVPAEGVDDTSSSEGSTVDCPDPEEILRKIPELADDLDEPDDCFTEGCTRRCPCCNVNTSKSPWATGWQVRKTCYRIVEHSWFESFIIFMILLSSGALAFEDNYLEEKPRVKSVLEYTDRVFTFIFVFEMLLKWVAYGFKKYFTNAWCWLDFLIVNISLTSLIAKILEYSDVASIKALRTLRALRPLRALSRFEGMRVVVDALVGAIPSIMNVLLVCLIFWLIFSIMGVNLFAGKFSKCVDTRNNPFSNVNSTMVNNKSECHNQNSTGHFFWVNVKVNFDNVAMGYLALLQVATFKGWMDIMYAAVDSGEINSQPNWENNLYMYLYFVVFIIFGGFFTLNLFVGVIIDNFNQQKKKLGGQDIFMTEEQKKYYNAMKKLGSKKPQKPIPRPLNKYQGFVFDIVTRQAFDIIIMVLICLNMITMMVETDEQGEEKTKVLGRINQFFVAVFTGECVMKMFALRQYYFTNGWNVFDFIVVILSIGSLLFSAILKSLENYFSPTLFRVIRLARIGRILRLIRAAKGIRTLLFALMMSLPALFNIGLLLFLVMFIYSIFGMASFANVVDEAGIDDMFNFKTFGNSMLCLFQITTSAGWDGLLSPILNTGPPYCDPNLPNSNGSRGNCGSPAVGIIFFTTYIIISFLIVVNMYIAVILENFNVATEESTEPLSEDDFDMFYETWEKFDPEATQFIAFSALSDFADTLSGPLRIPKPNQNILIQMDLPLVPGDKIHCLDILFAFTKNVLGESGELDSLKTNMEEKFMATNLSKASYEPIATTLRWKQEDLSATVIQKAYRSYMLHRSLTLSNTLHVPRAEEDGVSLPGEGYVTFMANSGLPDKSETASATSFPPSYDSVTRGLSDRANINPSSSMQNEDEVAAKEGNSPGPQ

## CC(=O)N[C@H]1CSSC[C@@H](C(=O)O)NC(=O)[C@H](CCCNC(=N)N)NC(=O)[C@H](CC(N)=O)NC(=O)[C@H](Cc2c[nH]c3ccccc23)NC(=O)[C@H](CCCNC(=N)N)NC(=O)[C@H](C)NC(=O)[C@H](Cc2c[nH]c3ccccc23)NC(=O)[C@H](CCCNC(=N)N)NC(=O)[C@H](CCCNC(=N)N)NC1=O [PnCS1Ac, Ac-CRRWARWNRC] (Ac-CRRWARWNRC-OH; disulfide 1-10)
hNaV1.5
  inhibition at 100 µM: 0%
rNaV1.4
  inhibition at 100 µM: 0%
rNaV1.2
  inhibition at 100 µM: 0%
mNaV1.6
  inhibition at 100 µM: 0%
rNaV1.8
  inhibition at 100 µM: 0%

## CC(=O)N[C@H]1CSSC[C@@H](C(N)=O)NC(=O)[C@H](CCCNC(=N)N)NC(=O)[C@H](CC(N)=O)NC(=O)[C@H](Cc2c[nH]c3ccccc23)NC(=O)[C@H](CCCNC(=N)N)NC(=O)[C@H](C)NC(=O)[C@H](Cc2c[nH]c3ccccc23)NC(=O)[C@H](CCCNC(=N)N)NC(=O)[C@H](CCCNC(=N)N)NC1=O [PnCS1AcAm, Ac-CRRWARWNRC ^*] (Ac-CRRWARWNRC-NH2; disulfide 1-10)
hNaV1.5
  IC50: > 100 µM
  inhibition at 100 µM: 0%
rNaV1.4
  IC50: > 100 µM
  inhibition at 100 µM: 0%
rNaV1.2
  IC50: > 100 µM
  inhibition at 100 µM: 0%
mNaV1.6
  IC50: > 100 µM
  inhibition at 100 µM: 0%
rNaV1.8
  IC50: > 100 µM
  inhibition at 100 µM: 0%

## C[C@@H]1NC(=O)[C@H](Cc2c[nH]c3ccccc23)NC(=O)[C@H](CCCNC(=N)N)NC(=O)[C@H](CCCNC(=N)N)NC(=O)[C@@H](N)CSSC[C@@H](C(=O)O)NC(=O)[C@H](CCCNC(=N)N)NC(=O)[C@H](CC(N)=O)NC(=O)[C@H](Cc2c[nH]c3ccccc23)NC(=O)[C@H](CCCNC(=N)N)NC1=O [PnCS1DeAm, CRRWARWNRC] (H-CRRWARWNRC-OH; disulfide 1-10)
hNaV1.5
  IC50: > 100 µM
  inhibition at 100 µM: 10%
rNaV1.4
  IC50: > 100 µM
  inhibition at 100 µM: 43%
rNaV1.2
  IC50: > 100 µM
  inhibition at 100 µM: 34%
mNaV1.6
  IC50: > 100 µM
  inhibition at 100 µM: 24%
rNaV1.8
  IC50: > 100 µM
  inhibition at 100 µM: 0%

## N=C(N)NCCC[C@@H]1NC(=O)[C@H](CC(N)=O)NC(=O)[C@H](Cc2c[nH]c3ccccc23)NC(=O)[C@H](CCCNC(=N)N)NC(=O)[C@H](CCC(=O)O)NC(=O)[C@H](Cc2c[nH]c3ccccc23)NC(=O)[C@H](CCCNC(=N)N)NC(=O)[C@H](CCCNC(=N)N)NC(=O)[C@@H](N)CSSC[C@@H](C(N)=O)NC1=O [PnCS1[A5E], CRRWERWNRC ^*] (H-CRRWERWNRC-NH2; disulfide 1-10)
hNaV1.5
  IC50: 8.8 ± 3.7 µM
  inhibition at 100 µM: 73%
rNaV1.4
  IC50: > 100 µM
  inhibition at 100 µM: 35%
rNaV1.2
  IC50: 1.4 ± 0.2 µM
  inhibition at 100 µM: 81%
mNaV1.6
  IC50: 1.8 ± 0.5 µM
  inhibition at 100 µM: 82%
rNaV1.8
  IC50: > 100 µM
  inhibition at 100 µM: 0%

## N=C(N)NCCC[C@@H]1NC(=O)[C@H](CC(N)=O)NC(=O)[C@H](Cc2c[nH]c3ccccc23)NC(=O)[C@H](CCCNC(=N)N)NC(=O)[C@H](CCCCN)NC(=O)[C@H](Cc2c[nH]c3ccccc23)NC(=O)[C@H](CCCNC(=N)N)NC(=O)[C@H](CCCNC(=N)N)NC(=O)[C@@H](N)CSSC[C@@H](C(N)=O)NC1=O [PnCS1[A5K], CRRWKRWNRC ^*] (H-CRRWKRWNRC-NH2; disulfide 1-10)
hNaV1.5
  IC50: 2.1 ± 0.2 µM
  inhibition at 100 µM: 92%
rNaV1.4
  IC50: 1.9 ± 0.8 µM
  inhibition at 100 µM: 91%
rNaV1.2
  IC50: 1.2 ± 0.4 µM
  inhibition at 100 µM: 84%
mNaV1.6
  IC50: 0.7 ± 0.3 µM
  inhibition at 100 µM: 93%
rNaV1.8
  IC50: > 100 µM
  inhibition at 100 µM: 0%

## C[C@@H]1NC(=O)[C@H](Cc2c[nH]c3ccccc23)NC(=O)[C@H](CCCNC(=N)N)NC(=O)[C@H](C)NC(=O)[C@H](Cc2c[nH]c3ccccc23)NC(=O)[C@H](CCCNC(=N)N)NC(=O)[C@H](CCCNC(=N)N)NC(=O)[C@@H](N)CSSC[C@@H](C(N)=O)NC(=O)[C@H](CCCNC(=N)N)NC1=O [PnCS1[N8A], CRRWARWARC ^*] (H-CRRWARWARC-NH2; disulfide 1-10)
hNaV1.5
  IC50: 2.2 ± 0.7 µM
  inhibition at 100 µM: 92%
rNaV1.4
  IC50: 0.9 ± 0.4 µM
  inhibition at 100 µM: 94%
rNaV1.2
  IC50: 0.9 ± 0.3 µM
  inhibition at 100 µM: > 95%
rNaV1.2; peptide at 100 μM, 100 µM
  Maximum % inhibition NaV1.2: 96%
mNaV1.6
  IC50: 0.8 ± 0.3 µM
  inhibition at 100 µM: 89%
rNaV1.8
  IC50: > 100 µM
  inhibition at 100 µM: 0%

## C[C@@H]1NC(=O)[C@H](Cc2c[nH]c3ccccc23)NC(=O)[C@H](CCCNC(=N)N)NC(=O)[C@H](CCCNC(=N)N)NC(=O)[C@@H](N)CSSC[C@@H](C(N)=O)NC(=O)[C@H](CCCNC(=N)N)NC(=O)[C@H](CCC(=O)O)NC(=O)[C@H](Cc2c[nH]c3ccccc23)NC(=O)[C@H](CCCNC(=N)N)NC1=O [PnCS1[N8E], CRRWARWERC ^*] (H-CRRWARWERC-NH2; disulfide 1-10)
hNaV1.5
  IC50: > 100 µM
  inhibition at 100 µM: 44%
rNaV1.4
  IC50: > 100 µM
  inhibition at 100 µM: 53%
rNaV1.2
  IC50: > 100 µM
  inhibition at 100 µM: 47%
mNaV1.6
  IC50: > 100 µM
  inhibition at 100 µM: 27%
rNaV1.8
  IC50: > 100 µM
  inhibition at 100 µM: 0%

## C[C@@H]1NC(=O)[C@H](Cc2c[nH]c3ccccc23)NC(=O)[C@H](CCCNC(=N)N)NC(=O)[C@H](CCCNC(=N)N)NC(=O)[C@@H](N)CSSC[C@@H](C(N)=O)NC(=O)[C@H](CCCNC(=N)N)NC(=O)[C@H](CCCCN)NC(=O)[C@H](Cc2c[nH]c3ccccc23)NC(=O)[C@H](CCCNC(=N)N)NC1=O [PnCS1[N8K], CRRWARWKRC ^*] (H-CRRWARWKRC-NH2; disulfide 1-10)
hNaV1.5
  IC50: 2.8 ± 0.5 µM
  inhibition at 100 µM: 86%
rNaV1.4
  IC50: 0.9 ± 0.3 µM
  Maximum % inhibition NaV1.4: 96%
  inhibition at 100 µM: > 95%
rNaV1.2
  IC50: 4.4 ± 0.8 µM
  inhibition at 100 µM: 81%
mNaV1.6
  IC50: 0.5 ± 0.2 µM
  inhibition at 100 µM: 92%
rNaV1.8
  IC50: > 100 µM
  inhibition at 100 µM: 0%

## C[C@@H]1NC(=O)[C@H](Cc2c[nH]c3ccccc23)NC(=O)[C@H](CCCNC(=N)N)NC(=O)[C@H](C)NC(=O)[C@@H](N)CSSC[C@@H](C(N)=O)NC(=O)[C@H](CCCNC(=N)N)NC(=O)[C@H](CC(N)=O)NC(=O)[C@H](Cc2c[nH]c3ccccc23)NC(=O)[C@H](CCCNC(=N)N)NC1=O [PnCS1[R2A], CARWARWNRC ^*] (H-CARWARWNRC-NH2; disulfide 1-10)
hNaV1.5
  IC50: 1.7 ± 0.7 µM
  inhibition at 100 µM: 68%
rNaV1.4
  IC50: 1.4 ± 0.4 µM
  Maximum % inhibition NaV1.4: 96%
  inhibition at 100 µM: > 95%
rNaV1.2
  IC50: 2.9 ± 0.5 µM
  inhibition at 100 µM: 84%
mNaV1.6
  IC50: 1.6 ± 0.5 µM
  inhibition at 100 µM: 71%
rNaV1.8
  IC50: > 100 µM
  inhibition at 100 µM: 0%

## C[C@@H]1NC(=O)[C@H](Cc2c[nH]c3ccccc23)NC(=O)[C@H](CCCNC(=N)N)NC(=O)[C@H](CCC(=O)O)NC(=O)[C@@H](N)CSSC[C@@H](C(N)=O)NC(=O)[C@H](CCCNC(=N)N)NC(=O)[C@H](CC(N)=O)NC(=O)[C@H](Cc2c[nH]c3ccccc23)NC(=O)[C@H](CCCNC(=N)N)NC1=O [PnCS1[R2E], CERWARWNRC ^*] (H-CERWARWNRC-NH2; disulfide 1-10)
hNaV1.5
  IC50: > 100 µM
  inhibition at 100 µM: 27%
rNaV1.4
  IC50: > 100 µM
  inhibition at 100 µM: 11%
rNaV1.2
  IC50: > 100 µM
  inhibition at 100 µM: 41%
mNaV1.6
  IC50: > 100 µM
  inhibition at 100 µM: 5%
rNaV1.8
  IC50: > 100 µM
  inhibition at 100 µM: 0%

## C[C@@H]1NC(=O)[C@H](Cc2c[nH]c3ccccc23)NC(=O)[C@H](CCCNC(=N)N)NC(=O)[C@H](CCCCN)NC(=O)[C@@H](N)CSSC[C@@H](C(N)=O)NC(=O)[C@H](CCCNC(=N)N)NC(=O)[C@H](CC(N)=O)NC(=O)[C@H](Cc2c[nH]c3ccccc23)NC(=O)[C@H](CCCNC(=N)N)NC1=O [PnCS1[R2K], CKRWARWNRC ^*] (H-CKRWARWNRC-NH2; disulfide 1-10)
hNaV1.5
  IC50: 2.5 ± 0.5 µM
  inhibition at 100 µM: 82%
rNaV1.4
  IC50: 0.8 ± 0.3 µM
  inhibition at 100 µM: 93%
rNaV1.2
  IC50: 1.1 ± 0.5 µM
  inhibition at 100 µM: 92%
mNaV1.6
  IC50: 0.6 ± 0.2 µM
  inhibition at 100 µM: 85%
rNaV1.8
  IC50: > 100 µM
  inhibition at 100 µM: 0%

## C[C@@H]1NC(=O)[C@H](Cc2c[nH]c3ccccc23)NC(=O)[C@H](C)NC(=O)[C@H](CCCNC(=N)N)NC(=O)[C@@H](N)CSSC[C@@H](C(N)=O)NC(=O)[C@H](CCCNC(=N)N)NC(=O)[C@H](CC(N)=O)NC(=O)[C@H](Cc2c[nH]c3ccccc23)NC(=O)[C@H](CCCNC(=N)N)NC1=O [PnCS1[R3A], CRAWARWNRC ^*] (H-CRAWARWNRC-NH2; disulfide 1-10)
hNaV1.5
  IC50: > 100 µM
  inhibition at 100 µM: 51%
rNaV1.4
  IC50: 1.6 ± 0.5 µM
  inhibition at 100 µM: 89%
rNaV1.2
  IC50: 1.8 ± 0.3 µM
  inhibition at 100 µM: 86%
mNaV1.6
  IC50: 1.9 ± 0.4 µM
  inhibition at 100 µM: 87%
rNaV1.8
  IC50: > 100 µM
  inhibition at 100 µM: 0%

## C[C@@H]1NC(=O)[C@H](Cc2c[nH]c3ccccc23)NC(=O)[C@H](CCC(=O)O)NC(=O)[C@H](CCCNC(=N)N)NC(=O)[C@@H](N)CSSC[C@@H](C(N)=O)NC(=O)[C@H](CCCNC(=N)N)NC(=O)[C@H](CC(N)=O)NC(=O)[C@H](Cc2c[nH]c3ccccc23)NC(=O)[C@H](CCCNC(=N)N)NC1=O [PnCS1[R3E], CREWARWNRC ^*] (H-CREWARWNRC-NH2; disulfide 1-10)
hNaV1.5
  IC50: > 100 µM
  inhibition at 100 µM: 21%
rNaV1.4
  IC50: > 100 µM
  inhibition at 100 µM: 36%
rNaV1.2
  IC50: > 100 µM
  inhibition at 100 µM: 52%
mNaV1.6
  IC50: > 100 µM
  inhibition at 100 µM: 24%
rNaV1.8
  IC50: > 100 µM
  inhibition at 100 µM: 0%

From paper PMC9116130 (Biochemical pharmacology, 2020)
